# Assay results reported in US10774083B2, “Heterocyclic amide compound” (TAKEDA PHARMACEUTICAL COMPANY LIMITED, priority 2016, dated 2020).
# What was measured:
# [1] = biological target: T1, human PRS protein (His-Avi-hEPRS (998-1512)) (Homo sapiens, UniProt P07814); assay: PRS inhibitory activity ([32P]pyrophosphate exchange enzyme assay); type: biochemical; conditions: 300 nM test compound; read-out: inhibitory rate (%) of PRS
# T1 construct: to construct His-Avi-hEPRS (998-1512) expression plasmid; His tag (N); Avi tag (N); TEV cleavage site (ENLYFQG, then S; inferred from the forward primer hEPRS-TEV-NheF) (N); made in house; host or cells: E. coli BL21(DE3)
# T1 sequence (P07814 998-1512 limits assumed): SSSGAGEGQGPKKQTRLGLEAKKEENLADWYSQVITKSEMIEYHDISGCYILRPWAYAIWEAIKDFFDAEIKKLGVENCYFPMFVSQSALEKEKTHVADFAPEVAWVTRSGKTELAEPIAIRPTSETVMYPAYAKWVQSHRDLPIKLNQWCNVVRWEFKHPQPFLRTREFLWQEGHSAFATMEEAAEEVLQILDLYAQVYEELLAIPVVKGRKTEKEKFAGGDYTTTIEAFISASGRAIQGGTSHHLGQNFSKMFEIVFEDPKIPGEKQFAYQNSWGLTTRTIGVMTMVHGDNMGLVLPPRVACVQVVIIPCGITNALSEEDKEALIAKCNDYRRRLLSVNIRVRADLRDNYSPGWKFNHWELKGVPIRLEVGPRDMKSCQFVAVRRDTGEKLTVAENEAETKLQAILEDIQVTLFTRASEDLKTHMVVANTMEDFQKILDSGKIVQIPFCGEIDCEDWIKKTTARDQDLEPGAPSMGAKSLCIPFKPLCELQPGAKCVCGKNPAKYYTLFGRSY
# Outline: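 Compound was pre-incubated 60 min with 40 nM His-Avi-hEPRS (998-1512) (stock, E. coli-expressed) in Tris pH 7.5/KCl/DTT/Tween/MgCl2. Reaction began with substrate mix containing 300 μM ATP, 160 μM L-proline, 400 μM [32P]pyrophosphate (stock levels) and ran 30 min at room temperature. Charcoal-bound radioactivity was counted; inhibition was relative to no-reaction control.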
# [2] = system: human ovarian cancer cells A2780; assay: proliferation inhibitory activity against human ovarian cancer cell A2780 (CellTiter-Glo); type: cell-based; conditions: A2780, 72 h, 1 μM test compound, 3 days of culture, read-out: proliferation inhibitory rate (%) of A2780 cells
# Outline: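 A2780 cells in RPMI-1640 with 10% FBS, compound added the day after seeding and cultured 3 days. Viability by CellTiter-Glo luminescence. Inhibition (%) calculated with cell-free wells as 100% inhibition.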
# [3] = system: human fibrosarcoma cell line HT-1080; assay: antitumor action on mice transplanted with human fibrosarcoma cell line HT-1080; type: in vivo, mouse; conditions: HT-1080, 10 mg/kg orally, once per day, 11 days
# Experimental: An antitumor action of the compound of the present invention on mice transplanted with human malignant melanoma cell line SKMEL-2 and human fibrosarcoma cell line HT-1080 was evaluated by the following method.
# Human fibrosarcoma cell line HT-1080 was subcutaneously transplanted by injection into 7-week-old BALB/cA Jcl-nu/nu female mouse (CLEA Japan, Inc.) by 7.5×10^6 cells. At 8 days from transplantation, the tumor diameter of the engrafted tumor was measured and the tumor volume was calculated by the following formula. tumor volume=major axis×minor axis×minor axis×(½)
# Individuals having a tumor volume of 100 to 300 mm^3 were selected for SKMEL-2, and individuals having a tumor volume of 200 to 400 mm^3 were selected for HT-1080, and 4 or 5 mice per group were used for the experiment. A 0.5% methylcellulose suspension of the test compound was orally administered to the mice at the dose (dose per administration), administration frequency and dosing period shown in Table 3. The tumor diameter was measured one day before the start of administration and one day after completion of administration and the tumor volume was calculated.
# The tumor proliferation rate (T/C (%)) of the test compound administration group in comparison with the control administration group was calculated by the following formula. […]
Compound,inhibition at 0.3 µM [1] [%],inhibition at 1 µM [2] [%],T/C (%) tumor proliferation rate [3] [%]
"Cc1cc(N2CC[C@@](C#N)(C3CC3)C2=O)cc(C(=O)NCc2cc(C#N)cc(-c3cnn(C)c3)c2)n1 [Example 167, 4-((3S)-3-cyano-3-cyclopropyl-2-oxopyrrolidin-1-yl)-N-(3-cyano-5-(1-methyl-1H-pyrazol-4-yl)benzyl)-6-methylpyridine-2-carboxamide]",99,98,–
"CC(c1nc2ncnc(C(=O)NCc3cc(F)cc(-c4cnn(C)c4)c3)c2[nH]1)C1CC1 (stereo not shown) [Example 45, 8-(1-cyclopropylethyl)-N-(3-fluoro-5-(1-methyl-1H-pyrazol-4-yl)benzyl)-7H-purine-6-carboxamide]",101,99,–
"Cn1cc(-c2cc(F)c(F)c(CNC(=O)c3ncnc4nc(C5CCCC5)n(C)c34)c2)cn1 [Example 5, 8-cyclopentyl-N-(2,3-difluoro-5-(1-methyl-1H-pyrazol-4-yl)benzyl)-7-methyl-7H-purine-6-carboxamide]",102,98,–
"Cn1cc(-c2cc(F)cc(CNC(=O)c3cc(N4CC[C@@](C#N)(C5CC5)C4=O)cc(C(F)F)n3)c2)cn1 [Example 214, 4-((3S)-3-cyano-3-cyclopropyl-2-oxopyrrolidin-1-yl)-6-(difluoromethyl)-N-(3-fluoro-5-(1-methyl-1H-pyrazol-4-yl)benzyl)pyridine-2-carboxamide]",99,72,–
"Cn1cc(-c2cc(C#N)cc(CNC(=O)c3ncnc4nc(C5CCCC5)[nH]c34)c2)cn1 [Example 16, N-(3-cyano-5-(1-methyl-1H-pyrazol-4-yl)benzyl)-8-cyclopentyl-7H-purine-6-carboxamide]",102,93,–
"Cn1cc2c(CNC(=O)c3ncnc4nc(C5CCCC5)[nH]c34)cccc2n1 [Example 10, 8-cyclopentyl-N-((2-methyl-2H-indazol-4-yl)methyl)-7H-purine-6-carboxamide]",97,55,–
"Cn1cc2c(CNC(=O)c3nccc4nc(C5CCCC5)[nH]c34)cccc2n1 [Example 94, 2-cyclopentyl-N-((2-methyl-2H-indazol-4-yl)methyl)-3H-imidazo[4,5-c]pyridine-4-carboxamide]",97,64,–
"Cn1ncc2cccc(CNC(=O)c3nccc4nc(C5CCCC5)[nH]c34)c21 [Example 95, 2-cyclopentyl-N-((1-methyl-1H-indazol-7-yl)methyl)-3H-imidazo[4,5-c]pyridine-4-carboxamide]",99,56,–
"Cc1cn(-c2cc(F)cc(CNC(=O)c3cc(N4CC[C@@](C#N)(C5CC5)C4=O)cc(C)n3)c2)cn1 [Example 228, 4-((3S)-3-cyano-3-cyclopropyl-2-oxopyrrolidin-1-yl)-N-(3-fluoro-5-(4-methyl-1H-imidazol-1-yl)benzyl)-6-methylpyridine-2-carboxamide]",100,88,–
"Cn1cc(-c2cc(F)cc(CNC(=O)c3ncnc4nc(C5COCCO5)[nH]c34)c2)cn1 (stereo not shown) [Example 32, 8-(1,4-dioxan-2-yl)-N-(3-fluoro-5-(1-methyl-1H-pyrazol-4-yl)benzyl)-7H-purine-6-carboxamide]",101,76,-8.2
"Cc1cc(-c2cc(F)cc(CNC(=O)c3cc(N4CC[C@@](C#N)(C5CC5)C4=O)cc(C)n3)c2)cnn1 [Example 207, 4-((3S)-3-cyano-3-cyclopropyl-2-oxopyrrolidin-1-yl)-N-(3-fluoro-5-(6-methylpyridazin-4-yl)benzyl)-6-methylpyridine-2-carboxamide]",96,59,–
"Cn1cc(-c2cc(F)c(F)c(CNC(=O)c3nccc4nc(C5CCCC5)[nH]c34)c2)cn1 [Example 90, 2-cyclopentyl-N-(2,3-difluoro-5-(1-methyl-1H-pyrazol-4-yl)benzyl)-3H-imidazo[4,5-c]pyridine-4-carboxamide]",101,96,–
"Cn1cc(-c2cc(F)cc(CNC(=O)c3ncnc4nc(C5CCCC5)[nH]c34)c2)cn1 [Example 2, 8-cyclopentyl-N-(3-fluoro-5-(1-methyl-1H-pyrazol-4-yl)benzyl)-7H-purine-6-carboxamide]",101,97,–
"O=C(NCc1ccccc1Cl)c1nccc2nc(C3CCCC3)[nH]c12 [Example 81, N-(2-chlorobenzyl)-2-cyclopentyl-3H-imidazo[4,5-c]pyridine-4-carboxamide]",97,56,–
"Cc1cc(N2CC[C@@](C#N)(C3CC3)C2=O)nc(C(=O)NCc2cc(F)cc(-c3cnn(C)c3)c2)n1 [Example 238, 4-((3S)-3-cyano-3-cyclopropyl-2-oxopyrrolidin-1-yl)-N-(3-fluoro-5-(1-methyl-1H-pyrazol-4-yl)benzyl)-6-methylpyrimidine-2-carboxamide]",101,95,–
"Cn1cc(-c2cc(F)cc(CNC(=O)c3ncc(F)c4nc(C5CCCC5)n(C)c34)c2)cn1 [Example 113, 2-cyclopentyl-7-fluoro-N-(3-fluoro-5-(1-methyl-1H-pyrazol-4-yl)benzyl)-3-methyl-3H-imidazo[4,5-c]pyridine-4-carboxamide]",101,99,–
"Cc1cc(N2CCC3(CC3)C2=O)cc(C(=O)NCc2cc(F)cc(-c3cnn(C)c3)c2)n1 [Example 233, N-(3-fluoro-5-(1-methyl-1H-pyrazol-4-yl)benzyl)-6-methyl-4-(4-oxo-5-azaspiro[2.4]hept-5-yl)pyridine-2-carboxamide]",100,70,–
"Cn1cc(-c2ccnc(CNC(=O)c3ncnc4nc(C5CCCC5)n(C)c34)c2)cn1 [Example 52, 8-cyclopentyl-7-methyl-N-((4-(1-methyl-1H-pyrazol-4-yl)pyridin-2-yl)methyl)-7H-purine-6-carboxamide]",99,69,–
"Cn1cc(-c2cc(F)cc(CNC(=O)c3nccc4nc(C5CCCC5)[nH]c34)c2)cn1 [Example 86, 2-cyclopentyl-N-(3-fluoro-5-(1-methyl-1H-pyrazol-4-yl)benzyl)-3H-imidazo[4,5-c]pyridine-4-carboxamide]",101,97,–
"COc1cc(-c2cc(F)cc(CNC(=O)c3nccc4nc(C5CCCC5)n(C)c34)c2)ccn1 [Example 96, 2-cyclopentyl-N-(3-fluoro-5-(2-methoxypyridin-4-yl)benzyl)-3-methyl-3H-imidazo[4,5-c]pyridine-4-carboxamide]",101,95,–
"Cn1cc(-c2cc(F)cc(CNC(=O)c3nccc4nc(C5CCCC5)n(CC#N)c34)c2)cn1 [Example 131, 3-(cyanomethyl)-2-cyclopentyl-N-(3-fluoro-5-(1-methyl-1H-pyrazol-4-yl)benzyl)-3H-imidazo[4,5-c]pyridine-4-carboxamide]",101,93,–
